Literature values, collected in patent US20090192228A1 (ACTAVIS GROUP PTC EHF, priority 2008, published 2009).

Conditions: compared with oxybutynin

## CC(C)N(CCC(c1ccccc1)c1cc(CO)ccc1O)C(C)C (stereo not shown)
  Side-effects relative to oxybutynin, particularly propensity to cause dry mouth: considerably fewer side-effects
